Biological target: T1, human TRPV4 (Homo sapiens, UniProt Q9HBA0)
T1 construct: host or cells: tetracycline-inducible Flp-In T-REx 293 cells
Assay: Hypotonicity-induced Ca2+ influx (Fluo-4, FDSS)
Format: cell-based
In short: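 Flp-In T-REx 293 cells with tetracycline-induced human TRPV4, loaded with Fluo-4 for 60 min at 25 °C. Compound added 5 min before hypotonic mannitol/CaCl2 solution. Ca2+ signal recorded for 4.5 min on FDSS.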

[1] = Flp-In T-REx 293 cells expressing human TRPV4, examples listed under heading 'Human IC50<50 nM'
[2] = Flp-In T-REx 293 cells stably expressing human TRPV4, compounds listed by potency bin (<10 nM Tables 96-1/96-2, <3 nM Table 97)

T1 sequence (Q9HBA0 whole entry): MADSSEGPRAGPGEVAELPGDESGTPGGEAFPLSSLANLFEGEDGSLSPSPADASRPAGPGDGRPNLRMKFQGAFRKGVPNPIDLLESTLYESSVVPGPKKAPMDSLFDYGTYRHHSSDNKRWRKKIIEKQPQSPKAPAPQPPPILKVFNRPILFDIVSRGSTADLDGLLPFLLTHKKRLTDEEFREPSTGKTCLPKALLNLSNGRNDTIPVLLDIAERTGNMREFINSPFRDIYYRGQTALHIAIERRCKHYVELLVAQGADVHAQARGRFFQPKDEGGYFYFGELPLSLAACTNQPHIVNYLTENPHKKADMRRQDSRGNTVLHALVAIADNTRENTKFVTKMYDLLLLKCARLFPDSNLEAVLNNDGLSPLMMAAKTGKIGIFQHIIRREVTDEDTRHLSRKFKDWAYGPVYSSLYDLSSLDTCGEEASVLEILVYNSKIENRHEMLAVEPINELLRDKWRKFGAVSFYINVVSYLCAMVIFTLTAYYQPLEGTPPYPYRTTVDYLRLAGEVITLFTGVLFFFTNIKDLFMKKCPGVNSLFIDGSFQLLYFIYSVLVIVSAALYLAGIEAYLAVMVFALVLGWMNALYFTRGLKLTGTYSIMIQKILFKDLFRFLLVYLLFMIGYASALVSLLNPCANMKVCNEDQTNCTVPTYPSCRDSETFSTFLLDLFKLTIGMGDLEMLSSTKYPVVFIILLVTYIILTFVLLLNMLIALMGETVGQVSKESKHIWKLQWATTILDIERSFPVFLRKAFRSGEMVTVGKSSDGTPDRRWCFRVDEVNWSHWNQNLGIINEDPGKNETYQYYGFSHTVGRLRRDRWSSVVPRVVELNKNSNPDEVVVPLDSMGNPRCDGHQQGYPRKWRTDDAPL

SMILES | IC50 [1] [nM] | IC50 [2] [nM]
Cc1ccc(-c2cccc(C(O)C(=O)N3CCc4nc(C5(c6ccccc6)CC5)[nH]c(=O)c4C3)c2)cc1 (stereo not drawn) [44-56] | < 50 | 
O=C(C(O)c1cccc(-c2ccccc2OC(F)(F)F)c1)N1CCc2nc(C3(c4ccccc4)CC3)[nH]c(=O)c2C1 (stereo not drawn) [44-57] | < 50 | 
COc1ccc(-c2cccc(C(O)C(=O)N3CCc4nc(C5(c6ccccc6)CC5)[nH]c(=O)c4C3)c2)cc1 (stereo not drawn) [44-58] | < 50 | 
O=C([C@H](O)c1cccc(-c2cccc(F)c2)c1)N1CCc2nc(C3(c4ccccc4)CC3)[nH]c(=O)c2C1 [44-70] | < 50 | 
O=C([C@H](O)c1cccc(-c2cccc(C(F)(F)F)c2)c1)N1CCc2nc(C3(c4ccccc4)CC3)[nH]c(=O)c2C1 [44-71] | < 50 | < 3
O=C([C@H](O)c1cccc(-c2cccc(OC(F)(F)F)c2)c1)N1CCc2nc(C3(c4ccccc4)CC3)[nH]c(=O)c2C1 [44-72] | < 50 | < 3
O=C([C@H](O)c1cccc(-c2cccc(Cl)c2)c1)N1CCc2nc(C3(c4ccccc4)CC3)[nH]c(=O)c2C1 [44-73] | < 50 | < 10
CC(C)(C)c1cccc(-c2cccc([C@@H](O)C(=O)N3CCc4nc(C5(c6ccccc6)CC5)[nH]c(=O)c4C3)c2)c1 [44-74] | < 50 | < 3
O=C([C@H](O)c1cccc(-c2cc(F)cc(Cl)c2)c1)N1CCc2nc(C3(c4ccccc4)CC3)[nH]c(=O)c2C1 [44-77] | < 50 | < 10
O=C([C@H](O)c1cccc(-c2cccc(C(F)(F)F)n2)c1)N1CCc2nc(C3(c4ccccc4)CC3)[nH]c(=O)c2C1 [44-78] | < 50 | < 3
O=C([C@H](O)c1cccc(-c2ccnc(C(F)(F)F)c2)c1)N1CCc2nc(C3(c4ccccc4)CC3)[nH]c(=O)c2C1 [44-79] | < 50 | < 3
O=C([C@H](O)c1cccc(-c2cnc3ccccc3c2)c1)N1CCc2nc(C3(c4ccccc4)CC3)[nH]c(=O)c2C1 [44-81] | < 50 | < 3
O=C([C@H](O)c1cccc(-c2ccc(F)c(Cl)c2)c1)N1CCc2nc(C3(c4ccccc4)CC3)[nH]c(=O)c2C1 [44-82] | < 50 | < 3
O=C([C@H](O)c1cccc(-c2ccc(OCc3ccccc3)nc2)c1)N1CCc2nc(C3(c4ccccc4)CC3)[nH]c(=O)c2C1 [44-83] | < 50 | < 10
O=C([C@H](O)c1cccc(-c2cc3ccccc3o2)c1)N1CCc2nc(C3(c4ccccc4)CC3)[nH]c(=O)c2C1 [44-84] | < 50 | < 3
O=C([C@H](O)c1cccc(-c2ccc3c(c2)OC(F)(F)O3)c1)N1CCc2nc(C3(c4ccccc4)CC3)[nH]c(=O)c2C1 [44-85] | < 50 | < 3
O=C([C@H](O)c1cccc(-c2ccc(Cl)cc2)c1)N1CCc2nc(C3(c4ccccc4)CC3)[nH]c(=O)c2C1 [44-86] | < 50 | < 10
O=C([C@H](O)c1cccc(-c2ccc(OCc3ccccn3)cc2)c1)N1CCc2nc(C3(c4ccccc4)CC3)[nH]c(=O)c2C1 [44-87] | < 50 | 
O=C([C@H](O)c1cccc(-c2ccc3ncccc3c2)c1)N1CCc2nc(C3(c4ccccc4)CC3)[nH]c(=O)c2C1 [44-88] | < 50 | 

SMILES | IC50 [1] [nM] | IC50 [2] [nM]
O=C([C@H](O)c1cccc(-c2ccc3cnccc3c2)c1)N1CCc2nc(C3(c4ccccc4)CC3)[nH]c(=O)c2C1 [44-89] | < 50 | 
O=C([C@H](O)c1cccc(-c2ccc3cccnc3c2)c1)N1CCc2nc(C3(c4ccccc4)CC3)[nH]c(=O)c2C1 [44-90] | < 50 | 
O=C([C@H](O)c1cccc(-c2cncc(C(F)(F)F)c2)c1)N1CCc2nc(C3(c4ccccc4)CC3)[nH]c(=O)c2C1 [44-92] | < 50 | 
O=C([C@H](O)c1cccc(-c2cccc(OCc3ccccc3)c2)c1)N1CCc2nc(C3(c4ccccc4)CC3)[nH]c(=O)c2C1 [44-93] | < 50 | < 10
Cc1ccc(-c2cccc([C@@H](O)C(=O)N3CCc4nc(C5(c6ccccc6)CC5)[nH]c(=O)c4C3)c2)cc1Cl [44-94] | < 50 | < 10
O=C([C@H](O)c1cccc(-c2cc3ccccc3s2)c1)N1CCc2nc(C3(c4ccccc4)CC3)[nH]c(=O)c2C1 [44-95] | < 50 | < 3
Cc1cc(Cl)cc(-c2cccc([C@@H](O)C(=O)N3CCc4nc(C5(c6ccccc6)CC5)[nH]c(=O)c4C3)c2)c1 [44-96] | < 50 | < 10
O=C([C@H](O)c1cccc(-c2ccc(Cl)c(OC(F)(F)F)c2)c1)N1CCc2nc(C3(c4ccccc4)CC3)[nH]c(=O)c2C1 [44-97] | < 50 | < 10
O=C([C@H](O)c1cccc(-c2cc(Cl)cc(OC(F)(F)F)c2)c1)N1CCc2nc(C3(c4ccccc4)CC3)[nH]c(=O)c2C1 [44-98] | < 50 | < 3
O=C([C@H](O)c1cccc(-c2cc(Cl)cc(C(F)(F)F)c2)c1)N1CCc2nc(C3(c4ccccc4)CC3)[nH]c(=O)c2C1 [44-99] | < 50 | < 10
O=C([C@H](O)c1cccc(-c2cc(Cl)cc(Cl)c2)c1)N1CCc2nc(C3(c4ccccc4)CC3)[nH]c(=O)c2C1 [44-100] | < 50 | < 10
O=C([C@H](O)c1cccc(-c2ccc(Cl)c(Cl)c2)c1)N1CCc2nc(C3(c4ccccc4)CC3)[nH]c(=O)c2C1 [44-101] | < 50 | < 10
O=C([C@H](O)c1cccc(-c2ccc(Cl)c(C(F)(F)F)c2)c1)N1CCc2nc(C3(c4ccccc4)CC3)[nH]c(=O)c2C1 [44-102] | < 50 | < 3
CC(C)(C)c1cc(-c2cccc([C@@H](O)C(=O)N3CCc4nc(C5(c6ccccc6)CC5)[nH]c(=O)c4C3)c2)cc(C(C)(C)C)c1 [44-103] | < 50 | < 10
CC(C)Oc1cccc(-c2cccc([C@@H](O)C(=O)N3CCc4nc(C5(c6ccccc6)CC5)[nH]c(=O)c4C3)c2)c1 [44-104] | < 50 | < 3
O=C([C@H](O)c1cccc(-c2cccc(C3CC3)c2)c1)N1CCc2nc(C3(c4ccccc4)CC3)[nH]c(=O)c2C1 [44-105] | < 50 | < 10
O=C([C@H](O)c1cccc(-c2ccc3c(c2)OCCCO3)c1)N1CCc2nc(C3(c4ccccc4)CC3)[nH]c(=O)c2C1 [44-106] | < 50 | 
O=C([C@H](O)c1cccc(-c2ccc(OCc3ccccc3)cc2)c1)N1CCc2nc(C3(c4ccccc4)CC3)[nH]c(=O)c2C1 [44-107] | < 50 | < 10
O=C([C@H](O)c1cccc(-c2cc(Cl)ccc2Cl)c1)N1CCc2nc(C3(c4ccccc4)CC3)[nH]c(=O)c2C1 [44-108] | < 50 | < 10

SMILES | IC50 [1] [nM] | IC50 [2] [nM]
O=C([C@H](O)c1cccc(-c2cccc(Cl)c2Cl)c1)N1CCc2nc(C3(c4ccccc4)CC3)[nH]c(=O)c2C1 [44-109] | < 50 | 
N#Cc1cc(Cl)cc(-c2cccc([C@@H](O)C(=O)N3CCc4nc(C5(c6ccccc6)CC5)[nH]c(=O)c4C3)c2)c1 [44-110] | < 50 | < 3
O=C([C@H](O)c1cccc(-c2ccccc2OCc2ccccc2)c1)N1CCc2nc(C3(c4ccccc4)CC3)[nH]c(=O)c2C1 [44-111] | < 50 | 
O=C([C@H](O)c1cccc(-c2coc3ccccc23)c1)N1CCc2nc(C3(c4ccccc4)CC3)[nH]c(=O)c2C1 [44-112] | < 50 | < 10
Cc1cc(C)cc(-c2cccc([C@@H](O)C(=O)N3CCc4nc(C5(c6ccccc6)CC5)[nH]c(=O)c4C3)c2)c1 [44-113] | < 50 | 
Cc1ccc(-c2cccc([C@@H](O)C(=O)N3CCc4nc(C5(c6ccccc6)CC5)[nH]c(=O)c4C3)c2)cc1C [44-114] | < 50 | 
CC(C)c1cccc(-c2cccc([C@@H](O)C(=O)N3CCc4nc(C5(c6ccccc6)CC5)[nH]c(=O)c4C3)c2)c1 [44-115] | < 50 | < 10
O=C([C@H](O)c1cccc(-c2ccc3c(c2)CCO3)c1)N1CCc2nc(C3(c4ccccc4)CC3)[nH]c(=O)c2C1 [44-116] | < 50 | 
Cc1cc(-c2cccc([C@@H](O)C(=O)N3CCc4nc(C5(c6ccccc6)CC5)[nH]c(=O)c4C3)c2)ccc1Cl [44-117] | < 50 | < 10
O=C(C(O)c1cccc(-c2ccc(-c3ccc(Cl)cc3)cc2)c1)N1CCc2nc(C3(c4ccccc4)CC3)[nH]c(=O)c2C1 (stereo not drawn) [44-118] | < 50 | < 10
O=C(C(O)c1cccc(-c2cccc(OCc3ccccc3)c2)c1)N1CCc2nc(C3(c4ccccc4)CC3)[nH]c(=O)c2C1 (stereo not drawn) [44-119] | < 50 | < 10
O=C([C@H](O)c1cccc(-c2ccc(F)c(Cl)c2)c1)N1CCc2nc(C3(c4cccc(Cl)c4)CC3)[nH]c(=O)c2C1 [45-1] | < 50 | < 3
CC(C)(C)c1cccc(-c2cccc([C@@H](O)C(=O)N3CCc4nc(C5(c6cccc(Cl)c6)CC5)[nH]c(=O)c4C3)c2)c1 [45-2] | < 50 | < 10
O=C([C@H](O)c1cccc(-c2ccc(Cl)c(C(F)(F)F)c2)c1)N1CCc2nc(C3(c4cccc(Cl)c4)CC3)[nH]c(=O)c2C1 [45-3] | < 50 | < 10
O=C([C@H](O)c1cccc(-c2cccc(C(F)(F)F)c2)c1)N1CCc2nc(C3(c4cccc(Cl)c4)CC3)[nH]c(=O)c2C1 [45-4] | < 50 | < 10
N#Cc1cc(Cl)cc(-c2cccc([C@@H](O)C(=O)N3CCc4nc(C5(c6cccc(Cl)c6)CC5)[nH]c(=O)c4C3)c2)c1 [45-5] | < 50 | < 3
O=C([C@H](O)c1cccc(-c2cccc(C(F)(F)F)n2)c1)N1CCc2nc(C3(c4cccc(Cl)c4)CC3)[nH]c(=O)c2C1 [45-6] | < 50 | < 3
O=C([C@H](O)c1cccc(-c2cccc(OC(F)(F)F)c2)c1)N1CCc2nc(C3(c4cccc(Cl)c4)CC3)[nH]c(=O)c2C1 [45-7] | < 50 | < 10
O=C([C@H](O)c1cccc(-c2cccc(Cl)c2)c1)N1CCc2nc(C3(c4cccc(Cl)c4)CC3)[nH]c(=O)c2C1 [45-8] | < 50 | < 10

Source: US12673946B2, “Pyrimidin-4(3H)-one derivatives as TRPV4 antagonists” (RaQualia Pharma Inc., priority 2020, dated 2026)
